Values after ≈ are worked out from the molar mass of the structure shown. Structures can show the parent of a compound that is named as a salt. Where two headings read alike, the source gives them in different places.
Key:
[1] = tested on: E. coli DH5αZ1 expressing Tet50; assay: Minimum inhibitory concentration, Tet50-expressing strain; type: cell-based; conditions: 20 h; for MIC: Escherichia coli; for MIC, Tet50, +TC: presence of 8 μg/mL TC, 37 °C
Protocol: (§1) The panels were stored at −80 °C before use. Single colonies of E. coli DH5αZ1 containing TetX7, Tet50, or empty vector in pZE24 expression system were grown in MH-II broth with KAN50 and growth for overnight at 37 °C. On the day of the experiment, MIC panels were thawed at room temperature. […] The panels were incubated at 37 °C for 20 h, then scored by visual inspection. […] Each test was performed in triplicate, with no-antibiotic and no-cell control wells.
(§2) Minimum inhibitory concentrations (MICs) were determined using the broth microdilution method according to CLSI guidelines. Visual inspection of bacterial growth and measurement of the OD600 were used to determine the lowest concentration at which bacterial growth was inhibited.

[2] = tested on: E. coli DH5αZ1 expressing TetX7; assay: Minimum inhibitory concentration, TetX7-expressing strain; type: cell-based; conditions: Escherichia coli, 20 h
Protocol: as §1, §2

Tet50 = target: T1, Tet50 (Unknown prokaryotic organism, UniProt A0A059WYP6); assay: In vitro inhibition of TC oxidation by Tet50 (A400), variable preincubation, dark or blue light; type: biochemical; conditions: role: inhibitor, 100 μM TC, 500 μM NADPH
T1 construct: made in house; host or cells: E. coli BL21-Star (DE3)
Protocol: PHBH activity was determined similarly using para-hydroxybenzoic acids as substrate and monitoring for NADPH consumption via A340. […] Reaction samples were prepared in a Costar 96-well flat bottom clear, polystyrene plate and incubated under dark or a 700 lm blue LED bulb held at a distance of 20 cm for various durations. Incubation times were 0, 30, 60, 120, and 240 min under dark or 0, 1, 2, 4, and 8 min under blue light. […] Initial enzyme velocities were determined by linear regression over the linear range of the reaction (typically between 0 and 1 min). […] The velocities were plotted against the logarithm of inhibitor concentration, and apparent IC50 plots were analyzed using GraphPad prism 10 software. […] All apparent IC50 values were plotted against the duration of incubation time and fitted to an exponential decay function. All data points were shown as means and error bars represented standard deviation at least two independent experiments.
TetX7 and TetX6 as model Type 1 enzymes and Tet50 as a model Type 2 enzyme were used.
A hallmark of covalent enzyme inhibition was time dependence given that longer exposure of the enzyme to the inhibitor allowed for more inactivating turnovers. […] The apparent IC50 values were determined for each preincubation time point by monitoring the TDase velocity at A400 under various inhibitor concentrations. The apparent IC50 values were plotted against the preincubation times to determine if the TDase inhibition was time-dependent (FIG. 6).

[3] = dark, 30 min preincubation of inhibitor with enzyme prior to initiating assay, read-out: Apparent IC50 values, Tet50
[4] = read-out: Apparent IC50 value over 7 min blue light, blue light, 7 min

T1 sequence (A0A059WYP6 whole entry): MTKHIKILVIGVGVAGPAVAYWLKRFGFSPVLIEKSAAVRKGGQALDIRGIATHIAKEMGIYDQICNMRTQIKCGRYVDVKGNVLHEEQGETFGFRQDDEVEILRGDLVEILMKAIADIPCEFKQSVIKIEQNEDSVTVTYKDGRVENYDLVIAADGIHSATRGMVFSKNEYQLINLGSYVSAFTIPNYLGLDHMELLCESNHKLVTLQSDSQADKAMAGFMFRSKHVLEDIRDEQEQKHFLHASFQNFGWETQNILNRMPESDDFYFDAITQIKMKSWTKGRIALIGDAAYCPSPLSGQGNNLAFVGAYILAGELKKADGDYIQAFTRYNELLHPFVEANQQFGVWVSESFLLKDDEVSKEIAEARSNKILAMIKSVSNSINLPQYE

For `Cc1c2c(c(O)c3c(O)c(CNC4(C)CC4)ccc13)C(=O)C1(O)C(=O)C(C(N)=O)=C(O)C(N(C)C)C1C2` [Compound 103, (4S,4aS,12aS)-4-(Dimethylamino)-3,10,11,12a-tetrahy-droxy-6-methyl-9-(((1-methylcyclopropyl)amino)methyl)-1,12-dioxo-1,4,4a,5,12,12a-hexahydrotetracene-2-carboxamide Hydrochloride], the MIC ([1]; read-out: MIC, Tet50, −TC) was 64 µg/mL, the “MIC, Tet50, +TC” value [1] was 16 µg/mL and the MIC ([2]; read-out: MIC, TetX7, −TC) was 64 µg/mL.
With `C#CCNCc1ccc2c(C)c3c(c(O)c2c1O)C(=O)[C@]1(O)C(=O)C(C(N)=O)=C(O)[C@@H](N(C)C)[C@@H]1C3.Cl` [Compound 104, (4S,4aS,12aS)-4-(Dimethylamino)-3,10,11,12a-tetrahydroxy-6-methyl-1,12-dioxo-9-((prop-2-yn-1-ylamino)-methyl)-1,4,4a,5,12,12a-hexahydrotetracene-2-carboxamide Hydrochloride] the “MIC, Tet50, +TC” value [1] was 8 µg/mL and the IC50 (Tet50; [3]) was 600 ± 40 µM.
In the case of `C#CCN(C)Cc1ccc2c(C)c3c(c(O)c2c1O)C(=O)[C@]1(O)C(=O)C(C(N)=O)=C(O)[C@@H](N(C)C)[C@@H]1C3` [Compound 105], the MIC ([1]; read-out: MIC, Tet50, −TC) is reported as 32 µg/mL (≈ 63 µM), the “MIC, Tet50, +TC” value [1] is reported as 16 µg/mL and the IC50 (Tet50; [4]) is reported as 107 ± 6 µM. For the same compound, the IC50 (Tet50; [3]) was 470 ± 60 µM.
`Cc1c2c(c(O)c3c(O)cccc13)C(=O)[C@]1(O)C(=O)C(C(N)=O)=C(O)[C@@H](N(C)C)[C@@H]1C2` [Compound 106, Anhydrotetracycline, reference compound] was tested, and the IC50 (Tet50; [4]) was 70 ± 10 µM, the IC50 (Tet50; blue light, start of course, read-out: Apparent IC50 value at start of blue light course) was 500 ± 60 µM and the IC50 (Tet50; dark, 240 min preincubation, read-out: Apparent IC50 value over 240 min preincubation) was 340 ± 40 µM.
`CN(C)[C@@H]1C(O)=C(C(N)=O)C(=O)[C@@]2(O)C(O)=C3C(=O)c4c(O)cccc4[C@@](C)(O)[C@H]3C[C@@H]12` [TC, tetracycline, reference compound] was tested, and the MIC ([1]; read-out: MIC of TC against Tet50::pZE24) was 16 µg/mL and the MIC ([2]; read-out: MIC of TC against TetX7::pZE24) was 16 µg/mL.
